According to PMC10599993, “The PTPN2/PTPN1 inhibitor ABBV-CLS-484 unleashes potent anti-tumour immunity” (Nature, 2023):

Legend:
Assay in all cases: biochemical
Parameters in all cases: Safety pharmacology off-target panel at Eurofins, radioligand binding with agonist or antagonist radioligand (Supplementary Table 2)
[1] = molecular target: T1, M5 (Homo sapiens, UniProt P08912); settings: antagonist radioligand
T1 construct: gene CHRM5
Experimental: (§1) Wide-range phosphatase, kinase and preclinical safety pharmacology off-target activity screens were conducted at Eurofins (Extended Data Table 5 and Supplementary Tables 1 and 2). A small phosphatase panel was developed at AbbVie to assess IC50 values on select phosphatases. The following enzymes used in the phosphatase selectivity panel were purchased from Eurofins: PTPN1 (PTP1B; 14–621), PTPN2 (TC-PTP; 14–646), PTPN9 (14–592), SHP1 (14–591) and SHP2 (14–622). The catalytic activity of the phosphatase was monitored using the small-molecule substrate DiFMUP (ThermoFisher) in a fluorescence assay format. In brief, the phosphatase reactions were performed at room temperature in the following assay buffer: 50 mM HEPES, pH 7.2, 100 mM NaCl, 1 mM EDTA, 0.005% Tween-20 and 5 mM TCEP. Each phosphatase was incubated with increasing concentrations of AC484 for 5 min, after which the substrate DiFMUP was added and incubated at 25 °C for 30 min. The final concentration of the enzyme and substrate was maintained at 0.5 nM and 5 μM, respectively, in all the assays. The reaction was then quenched by the addition of a 100 μM solution of bpV(Phen) (Enzo Life Sciences). The fluorescence signal was monitored using an Envision microplate reader (Perkin-Elmer) using excitation and emission wavelengths of 340 nm and 450 nm, respectively. The dose–response curves for the inhibitors were analysed using normalized IC50 regression curve fitting with control-based normalization. Supplementary file 41586_2023_6575_MOESM4_ESM.xlsx: Supplementary Table 2 AC484 receptor selectivity screen.

[2] = molecular target: T2, A3 (h) (Homo sapiens, UniProt P0DMS8); settings: agonist radioligand
T2 construct: gene ADORA3
Experimental: as §1

[3] = molecular target: T3, Y1 (Homo sapiens, UniProt P25929); settings: agonist radioligand
T3 construct: gene NPY1R
Experimental: as §1

[4] = molecular target: T4, D2S (Homo sapiens, UniProt P14416); settings: antagonist radioligand
T4 construct: gene DRD2; D2S short isoform
T4 sequence (P14416 whole entry, canonical isoform): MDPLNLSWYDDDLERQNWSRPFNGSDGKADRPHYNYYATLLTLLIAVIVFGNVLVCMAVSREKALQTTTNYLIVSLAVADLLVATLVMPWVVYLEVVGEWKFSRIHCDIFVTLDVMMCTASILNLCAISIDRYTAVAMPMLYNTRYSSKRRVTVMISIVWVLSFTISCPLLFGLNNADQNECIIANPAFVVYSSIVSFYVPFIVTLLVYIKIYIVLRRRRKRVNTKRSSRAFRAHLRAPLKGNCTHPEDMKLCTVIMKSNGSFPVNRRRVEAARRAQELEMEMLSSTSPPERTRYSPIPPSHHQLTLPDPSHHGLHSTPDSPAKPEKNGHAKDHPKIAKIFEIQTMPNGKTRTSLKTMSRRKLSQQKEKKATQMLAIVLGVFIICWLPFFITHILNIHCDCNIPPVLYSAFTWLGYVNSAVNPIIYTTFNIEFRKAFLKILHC
Experimental: as §1

[5] = molecular target: T5, b2 (h) (Homo sapiens, UniProt P07550); settings: antagonist radioligand
T5 construct: gene ADRB2
T5 sequence (P07550 whole entry): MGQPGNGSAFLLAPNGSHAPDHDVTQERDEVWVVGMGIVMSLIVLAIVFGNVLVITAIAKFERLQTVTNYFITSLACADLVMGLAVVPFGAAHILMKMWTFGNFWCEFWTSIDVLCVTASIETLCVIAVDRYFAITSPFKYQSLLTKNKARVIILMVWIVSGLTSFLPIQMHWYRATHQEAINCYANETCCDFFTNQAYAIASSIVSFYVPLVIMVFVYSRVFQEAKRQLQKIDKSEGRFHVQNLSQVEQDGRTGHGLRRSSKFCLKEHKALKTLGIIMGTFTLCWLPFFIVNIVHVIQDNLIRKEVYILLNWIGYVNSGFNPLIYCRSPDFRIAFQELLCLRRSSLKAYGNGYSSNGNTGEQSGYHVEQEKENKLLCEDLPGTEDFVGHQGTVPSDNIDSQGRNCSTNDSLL
Experimental: as §1

[6] = molecular target: T6, GABAA1 (a1.b2.g2) (Homo sapiens, UniProt P14867+P18507+P47870); settings: agonist radioligand
T6 construct: gene GABRA1; a1.b2.g2
Experimental: as §1

[7] = molecular target: T7, a2B (h) (Homo sapiens, UniProt P18089); settings: antagonist radioligand
T7 construct: gene ADRA2B
Experimental: as §1

[8] = molecular target: T8, ETA (Homo sapiens, UniProt P25101); settings: agonist radioligand
T8 construct: gene EDNRA
Experimental: as §1

[9] = molecular target: T9, Dopamine transporter (Homo sapiens, UniProt Q01959); settings: antagonist radioligand
T9 construct: gene SLC6A3
T9 sequence (Q01959 whole entry): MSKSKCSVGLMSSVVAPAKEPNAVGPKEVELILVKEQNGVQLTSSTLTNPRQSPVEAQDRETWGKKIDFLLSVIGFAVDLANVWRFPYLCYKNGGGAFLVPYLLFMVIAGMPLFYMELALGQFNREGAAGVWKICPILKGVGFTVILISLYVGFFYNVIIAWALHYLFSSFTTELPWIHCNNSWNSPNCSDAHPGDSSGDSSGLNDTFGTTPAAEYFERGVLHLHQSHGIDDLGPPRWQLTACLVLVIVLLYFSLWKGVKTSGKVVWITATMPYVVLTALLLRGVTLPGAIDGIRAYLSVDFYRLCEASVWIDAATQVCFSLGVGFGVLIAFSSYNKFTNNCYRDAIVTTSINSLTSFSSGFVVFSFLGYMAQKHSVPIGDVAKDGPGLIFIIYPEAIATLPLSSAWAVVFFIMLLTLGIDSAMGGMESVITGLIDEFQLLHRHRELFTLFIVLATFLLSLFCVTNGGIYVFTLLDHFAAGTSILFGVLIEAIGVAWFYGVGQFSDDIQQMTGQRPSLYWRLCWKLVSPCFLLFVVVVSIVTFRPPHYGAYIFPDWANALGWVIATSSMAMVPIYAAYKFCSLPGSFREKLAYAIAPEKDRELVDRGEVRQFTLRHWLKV
Experimental: as §1

[10] = molecular target: T10, H2 (Homo sapiens, UniProt P25021); settings: antagonist radioligand
T10 construct: gene HRH2
Experimental: as §1

[11] = molecular target: PPARg (Homo sapiens, UniProt P37231); settings: agonist radioligand
Experimental: as §1

[12] = molecular target: T11, 5-HT4e (Homo sapiens, UniProt Q13639); settings: antagonist radioligand
T11 construct: gene HTR4; 5-HT4e isoform
T11 sequence (Q13639 whole entry, canonical isoform): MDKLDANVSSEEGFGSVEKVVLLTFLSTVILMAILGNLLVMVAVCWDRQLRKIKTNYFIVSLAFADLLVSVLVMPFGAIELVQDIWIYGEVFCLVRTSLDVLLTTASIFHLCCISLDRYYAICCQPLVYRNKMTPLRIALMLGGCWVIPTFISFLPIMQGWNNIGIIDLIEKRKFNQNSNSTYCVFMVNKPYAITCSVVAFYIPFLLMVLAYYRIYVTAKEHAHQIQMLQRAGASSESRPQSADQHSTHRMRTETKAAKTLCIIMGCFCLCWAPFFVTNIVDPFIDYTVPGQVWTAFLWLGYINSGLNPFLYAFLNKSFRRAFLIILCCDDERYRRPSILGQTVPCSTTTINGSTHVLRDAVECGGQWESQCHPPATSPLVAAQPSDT
Experimental: as §1

[13] = molecular target: T12, Norepinephrine transporter (Homo sapiens, UniProt P23975); settings: antagonist radioligand
T12 construct: gene SLC6A2
T12 sequence (P23975 whole entry): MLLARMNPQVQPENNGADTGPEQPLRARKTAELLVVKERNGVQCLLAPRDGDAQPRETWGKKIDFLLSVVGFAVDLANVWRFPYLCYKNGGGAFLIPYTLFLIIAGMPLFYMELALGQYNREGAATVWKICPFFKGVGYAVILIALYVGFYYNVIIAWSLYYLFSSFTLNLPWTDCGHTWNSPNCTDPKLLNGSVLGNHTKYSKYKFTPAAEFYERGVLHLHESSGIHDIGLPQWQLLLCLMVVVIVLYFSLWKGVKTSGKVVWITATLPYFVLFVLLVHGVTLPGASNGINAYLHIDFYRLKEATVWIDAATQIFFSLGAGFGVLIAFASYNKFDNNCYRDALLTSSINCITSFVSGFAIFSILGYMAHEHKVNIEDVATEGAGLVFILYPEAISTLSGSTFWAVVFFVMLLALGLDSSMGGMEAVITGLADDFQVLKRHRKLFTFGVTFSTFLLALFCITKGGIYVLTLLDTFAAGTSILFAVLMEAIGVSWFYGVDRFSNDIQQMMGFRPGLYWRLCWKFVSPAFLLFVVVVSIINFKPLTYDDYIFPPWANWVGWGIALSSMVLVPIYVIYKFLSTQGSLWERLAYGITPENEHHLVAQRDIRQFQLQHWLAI
Experimental: as §1

[14] = molecular target: T13, M2 (Homo sapiens, UniProt P08172); settings: antagonist radioligand
T13 construct: gene CHRM2
T13 sequence (P08172 whole entry): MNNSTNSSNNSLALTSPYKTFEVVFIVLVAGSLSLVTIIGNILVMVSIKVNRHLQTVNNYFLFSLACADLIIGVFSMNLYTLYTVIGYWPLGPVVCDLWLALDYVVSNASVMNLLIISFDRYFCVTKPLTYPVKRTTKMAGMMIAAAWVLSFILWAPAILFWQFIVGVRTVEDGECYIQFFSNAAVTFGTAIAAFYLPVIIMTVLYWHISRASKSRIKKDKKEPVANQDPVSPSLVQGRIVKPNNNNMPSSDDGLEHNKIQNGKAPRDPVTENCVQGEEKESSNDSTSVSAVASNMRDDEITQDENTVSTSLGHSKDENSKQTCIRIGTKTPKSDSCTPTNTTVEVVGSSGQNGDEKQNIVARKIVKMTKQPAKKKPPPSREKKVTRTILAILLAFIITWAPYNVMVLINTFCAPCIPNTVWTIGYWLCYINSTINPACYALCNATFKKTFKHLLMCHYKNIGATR
Experimental: as §1

[15] = molecular target: T14, a1B (h) (Homo sapiens, UniProt P35368); settings: antagonist radioligand
T14 construct: gene ADRA1B
T14 sequence (P35368 whole entry): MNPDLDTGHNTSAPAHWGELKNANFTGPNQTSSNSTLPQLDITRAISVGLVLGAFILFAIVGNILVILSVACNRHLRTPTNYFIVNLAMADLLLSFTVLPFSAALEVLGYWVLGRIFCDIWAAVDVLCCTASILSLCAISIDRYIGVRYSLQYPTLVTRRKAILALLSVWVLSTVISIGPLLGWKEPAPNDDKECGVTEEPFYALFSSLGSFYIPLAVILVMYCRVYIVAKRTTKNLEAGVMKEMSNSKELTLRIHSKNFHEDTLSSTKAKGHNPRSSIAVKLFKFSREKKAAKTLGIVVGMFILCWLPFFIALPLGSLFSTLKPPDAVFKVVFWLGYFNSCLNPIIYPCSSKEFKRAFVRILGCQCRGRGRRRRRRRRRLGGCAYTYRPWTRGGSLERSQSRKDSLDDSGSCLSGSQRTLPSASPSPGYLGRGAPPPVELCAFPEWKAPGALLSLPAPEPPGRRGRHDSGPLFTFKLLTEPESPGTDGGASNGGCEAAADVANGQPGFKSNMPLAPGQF
Experimental: as §1

[16] = molecular target: T15, 5-HT2B (Homo sapiens, UniProt P41595); settings: agonist radioligand
T15 construct: gene HTR2B
T15 sequence (P41595 whole entry): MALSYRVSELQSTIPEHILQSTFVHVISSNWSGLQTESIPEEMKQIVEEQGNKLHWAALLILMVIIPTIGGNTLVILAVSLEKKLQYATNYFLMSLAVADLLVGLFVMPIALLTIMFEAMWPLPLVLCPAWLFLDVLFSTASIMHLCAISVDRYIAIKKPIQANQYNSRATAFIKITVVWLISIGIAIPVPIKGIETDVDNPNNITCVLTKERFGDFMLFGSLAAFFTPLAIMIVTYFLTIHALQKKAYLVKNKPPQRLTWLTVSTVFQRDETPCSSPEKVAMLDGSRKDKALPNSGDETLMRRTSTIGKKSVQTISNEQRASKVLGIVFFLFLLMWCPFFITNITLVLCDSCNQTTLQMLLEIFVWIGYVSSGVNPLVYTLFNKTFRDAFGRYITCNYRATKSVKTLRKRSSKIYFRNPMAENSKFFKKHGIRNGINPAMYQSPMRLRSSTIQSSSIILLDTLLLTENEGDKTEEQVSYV
Experimental: as §1

[17] = molecular target: T16, CCK1 (CCKA) (Homo sapiens, UniProt P32238); settings: agonist radioligand
T16 construct: gene CCKAR
T16 sequence (P32238 whole entry): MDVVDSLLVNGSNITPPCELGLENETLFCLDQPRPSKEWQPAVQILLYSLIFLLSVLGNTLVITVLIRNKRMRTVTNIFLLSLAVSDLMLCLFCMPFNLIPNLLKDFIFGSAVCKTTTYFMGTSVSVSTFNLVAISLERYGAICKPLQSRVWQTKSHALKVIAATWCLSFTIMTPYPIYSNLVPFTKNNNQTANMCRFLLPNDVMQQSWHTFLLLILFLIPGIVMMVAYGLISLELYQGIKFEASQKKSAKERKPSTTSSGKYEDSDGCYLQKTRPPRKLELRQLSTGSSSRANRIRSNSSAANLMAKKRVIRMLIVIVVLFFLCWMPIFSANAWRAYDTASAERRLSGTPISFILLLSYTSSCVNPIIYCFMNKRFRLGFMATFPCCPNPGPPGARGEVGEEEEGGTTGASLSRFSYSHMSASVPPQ
Experimental: as §1

[18] = molecular target: T17, b1 (h) (Homo sapiens, UniProt P08588); settings: agonist radioligand
T17 construct: gene ADRB1
Experimental: as §1

[19] = molecular target: T18, 5-HT2C (Homo sapiens, UniProt P28335); settings: antagonist radioligand
T18 construct: gene HTR2C
Experimental: as §1

Measured: AC50

T1 sequence (P08912 whole entry): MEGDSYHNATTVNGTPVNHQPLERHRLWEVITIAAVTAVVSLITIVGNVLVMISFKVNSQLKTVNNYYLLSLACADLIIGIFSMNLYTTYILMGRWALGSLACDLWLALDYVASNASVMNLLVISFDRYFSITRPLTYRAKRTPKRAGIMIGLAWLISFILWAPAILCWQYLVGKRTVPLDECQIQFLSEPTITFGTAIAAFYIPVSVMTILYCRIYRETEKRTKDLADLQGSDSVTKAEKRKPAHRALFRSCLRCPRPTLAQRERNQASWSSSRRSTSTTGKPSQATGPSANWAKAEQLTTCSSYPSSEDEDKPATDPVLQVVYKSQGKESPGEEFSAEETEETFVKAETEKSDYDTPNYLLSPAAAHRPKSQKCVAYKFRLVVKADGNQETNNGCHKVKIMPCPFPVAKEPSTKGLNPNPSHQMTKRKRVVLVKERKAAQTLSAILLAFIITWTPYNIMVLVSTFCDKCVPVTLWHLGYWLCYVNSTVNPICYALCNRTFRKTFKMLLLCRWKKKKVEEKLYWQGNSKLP

CC(C)CCN[C@@H]1CCc2cc(O)c(N3CC(=O)NS3(=O)=O)c(F)c2C1 [AC484, ABBV-CLS-484]
> 0.01 mM: all assays above
